# Source: patent publication US12187722B2, “Small molecule inhibitors of TEAD transcription factors” (The General Hospital Corporation, priority 2019, dated 2025)
# Values joined by “and” are separate entries in the source; they are usually repeats but may differ in a detail not shown here. Identical values can stand only once.
# Target: TEAD2 (Homo sapiens (Human), UniProt Q15562)
# Test: In vitro palmitoylation (TEAD2 autopalmitoylation, streptavidin blot)
# Type: biochemical
# Details: for inhibition at 10 µM / % of inhibition of TEAD2 palmitoylation at 10 μM: compound at 10 μM
# In short: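 Recombinant GST- or His6-TEAD2 (500 ng) preincubated 15 min with compound, then 30 min with 1 μM alkyne palmitoyl-CoA; click-labelled with biotin-azide (1 h, RT). Streptavidin-HRP blot band intensity quantified after SDS-PAGE; inhibition of autopalmitoylation relative to DMSO control.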
# Chain of TEAD2 (Q15562 whole entry): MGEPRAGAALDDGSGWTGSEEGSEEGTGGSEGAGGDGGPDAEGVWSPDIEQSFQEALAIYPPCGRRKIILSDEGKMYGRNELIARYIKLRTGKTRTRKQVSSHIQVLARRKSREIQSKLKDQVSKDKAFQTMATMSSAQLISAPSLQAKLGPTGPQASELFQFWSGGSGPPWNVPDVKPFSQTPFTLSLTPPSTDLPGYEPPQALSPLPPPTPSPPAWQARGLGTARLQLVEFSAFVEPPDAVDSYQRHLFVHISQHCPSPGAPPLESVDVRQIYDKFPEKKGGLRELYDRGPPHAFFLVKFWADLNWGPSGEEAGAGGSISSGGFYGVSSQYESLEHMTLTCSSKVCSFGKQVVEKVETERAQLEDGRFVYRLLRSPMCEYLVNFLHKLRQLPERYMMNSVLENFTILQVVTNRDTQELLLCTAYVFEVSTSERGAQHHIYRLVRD
Compound,inhibition at 10 µM (Table 2) [%],further results
CN(c1ccc(Nc2ccc(C34CC5CC(CC(C5)C3)C4)cc2)cc1)c1ncccc1C(=O)O [Compound 138],24,
CC(C)c1ccccc1Cc1cccc(Nc2ncccc2C(=O)O)c1 [Compound 113],100,
CN(c1ccc(C23CC4CC(CC(C4)C2)C3)cc1)c1ccc(N(C)c2ccccc2C(=O)O)cn1 [Compound 160],84,
CNC(=O)c1ccccc1Nc1ccc(Nc2ccc(C34CC5CC(CC(C5)C3)C4)cc2Cl)cc1 [compound 276],52,
O=C(O)c1ccc(Nc2ccc(Nc3ccc(C45CC6CC(CC(C6)C4)C5)cc3)cc2)cc1 [Compound 81],78,
CCCCN(c1ccccc1)c1ccc(Nc2ccc(Nc3ncccc3C(=O)O)cc2)c(Cl)c1 [Compound 259],83,
O=C(O)C1CCCN1Cc1ccc(Nc2ccc(C34CC5CC(CC(C5)C3)C4)cc2Cl)cc1 (centres unmarked) [Compound 103],53,
O=C(O)c1cccnc1CN1CCCC(Nc2ccc(C34CC5CC(CC(C5)C3)C4)cc2Cl)C1 (centres unmarked) [Compound 141],95,
O=C(O)[C@@H]1CCCN1C(=O)c1ccc(Nc2ccc(C34CC5CC(CC(C5)C3)C4)cc2Cl)cc1 [Compound 48],87,
COc1ccccc1-c1ccc(Nc2ccc(Nc3ccccc3C(=O)O)cc2)c(Cl)c1 [Compound 56],0,
O=C(Nc1ccc(C23CC4CC(CC(C4)C2)C3)cc1Cl)c1ccc(Nc2ccccc2C(=O)O)cc1 [Compound 37],30,
O=C(O)c1cncc(Nc2ccc(Nc3ccc(C45CC6CC(CC(C6)C4)C5)cc3Cl)cc2)c1 [Compound 116],91,
CN(c1ccc(N(c2ccc(C(=O)O)cn2)c2ccc(C(=O)O)cn2)cc1)c1ccc(C23CC4CC(CC(C4)C2)C3)cc1 [Compound 204],99,
CCN(c1ccc(N(C)c2ccc(C34CC5CC(CC(C5)C3)C4)cc2)cc1)c1ccccc1C(=O)O [Compound 171],75,
O=C(O)c1cccnc1Cc1ccc(Nc2ccc(C34CC5CC(CC(C5)C3)C4)cc2Cl)cc1 [Compound 122],95,
O=C(Nc1ccc(C23CC4CC(CC(C4)C2)C3)cc1)c1cccc(Nc2ncccc2C(=O)O)c1 [Compound 234],64,
CC(C)c1ccccc1-c1ccc(Nc2ccc(Nc3ccccc3C(=O)O)cc2)c(Cl)c1 [Compound 41],52,
CCCCN(CCCC)c1ccc(NC(=O)c2ccc(Nc3ccccc3C(=O)O)cc2)cc1 [Compound 170],62,
O=C(O)c1cccn1Cc1ccc(Nc2ccc(C34CC5CC(CC(C5)C3)C4)cc2Cl)cc1 [Compound 124],86,
O=C(Nc1ccccc1C(=O)O)c1ccc(Nc2ccc(C34CC5CC(CC(C5)C3)C4)cc2Br)cc1 [Compound 228],89,
COc1ccc(Nc2ccc(N(C)c3ccc(C4CCCCC4)cn3)cc2)c(C(=O)O)c1 [CP-581],,inhibition at 10 µM (Table 3): 40%
O=C(Nc1ccccc1C(=O)O)c1ccc(Nc2ccc(C34CC5CC(CC(C5)C3)C4)cc2)cc1 [Compound 197],100,
Cc1cc(N(C)c2ccc(C3CCCCC3)cc2Cl)ccc1Nc1cccc(C(=O)O)n1 [CP-681],,inhibition at 10 µM (Table 3): 8%
Cc1ccccc1-c1cc(Cl)c(Nc2ccc(Nc3ccccc3C(=O)O)cc2)cc1C [Compound 61],70,
COc1ccc(Nc2ccc(N(C)c3nc(C(F)(F)F)cs3)cc2)c(C(=O)O)c1 [CP-588],,inhibition at 10 µM (Table 3): 36%
Cc1cc(C23CC4CC(CC(C4)C2)C3)cc(C)c1Nc1ccc(Nc2ccccc2C(=O)O)cc1 [Compound 79],45,

Compound,inhibition at 10 µM (Table 2) [%],further results
Clc1cc(C23CC4CC(CC(C4)C2)C3)ccc1Nc1ccc(Nc2ccccc2-c2nnn[nH]2)cc1,,inhibition at 10 µM: 20%
COc1ccc(Nc2ccc(Oc3ccc(C(F)(F)F)cc3Cl)nc2)c(C(=O)O)c1 [CP-601],,inhibition at 10 µM (Table 3): 46%
CC12CC3CC(C)(C1)CC(c1ccc(NC(=O)c4cccc(Nc5ncccc5C(=O)O)c4)c(Cl)c1)(C3)C2 [Compound 262],85,
O=C(Nc1ccc(C23CC4CC(CC(C4)C2)C3)cc1)c1ccc(Nc2ccccc2C(=O)O)cc1 [Compound 35],,% of inhibition of TEAD2 palmitoylation at 10 μM (Table 2): 63% and 86%
Cc1cc(N(C)c2ccc(C3CCCCC3)cc2)ccc1Nc1ccc(OC2CCCCC2)cc1C(=O)O [CP-634],,inhibition at 10 µM (Table 3): 32%
CNCc1ccc(Nc2ccc(N(C)c3ccc(C4CCCCC4)cc3)cc2C)c(C(=O)O)c1 [CP-637],,inhibition at 10 µM (Table 3): 5%
"O=C(O)c1ccccc1Nc1ccc(Nc2ccc(C34CC5CC(CC(C5)C3)C4)cc2)cc1 [Compound 24, 2-((4-((4-((3R,5R)-adamantan-1-yl)phenyl)amino)phenyl)amino)benzoic acid]",56,
CCN(c1ccc(N(CC)c2ccccc2C(=O)O)cc1)c1ccc(C23CC4CC(CC(C4)C2)C3)cc1 [Compound 163],85,
CCCCN(CCCC)C(=O)c1ccc(Nc2ccccc2C(=O)O)cc1 [Compound 159],41,
Cc1cc(N(C)c2ccc(C3CCCCC3)cc2)ncc1Nc1ccc(OC2CC2)cc1C(=O)O [CP-673],,inhibition at 10 µM (Table 3): 15%
CC(C)c1ccccc1-c1ccc(NC(=O)c2ccc(Nc3ccccc3C(=O)O)cc2)cc1 [Compound 211],67,
O=C(Nc1ccc(C23CC4CC(CC(C4)C2)C3)cc1Br)c1ccc(Nc2ccccc2C(=O)O)cc1 [Compound 36],100,
COc1ccc(Nc2ccc(F)cc2Oc2ccc(C34CC5CC(C)(CC(C)(C5)C3)C4)cc2Cl)c(C(=O)O)c1 [CP-569],,inhibition at 10 µM (Table 3): 59%
O=C(OCC(O)CO)c1ccccc1Nc1ccc(Nc2ccc(C34CC5CC(CC(C5)C3)C4)cc2)cc1 (centres unmarked),,inhibition at 10 µM: 80%
COc1ccc(Nc2ccc(N(C)c3ccc(C(F)(F)F)cc3)cc2)c(C(N)=O)c1 [CP-605],,inhibition at 10 µM (Table 3): 47%
Cn1c(-c2ccc(Nc3ccc(C45CC6CC(CC(C6)C4)C5)cc3)cc2)nc2cccc(C(=O)O)c21 [Compound 173],51,
O=C(O)c1ccccc1Nc1ccc(-c2cnc(-c3ccccc3)s2)cc1 [Compound 68],,"inhibition of TEAD2 palmitoylation (YES/NO) (Table 2, result printed in words): YES"
COc1ccc(Nc2ccc(N(C)c3ccc(C4CCC(F)(F)CC4)cc3)cc2)c(C(=O)O)c1 [CP-552],,inhibition at 10 µM (Table 3): 74%
COc1ccc(Nc2ccc(N(C)c3ccc(C4CCCCC4)cc3)nc2)nc1C(=O)O [CP-654],,inhibition at 10 µM (Table 3): 36%
CC12CC3CC(C)(C1)CC(c1ccc(NS(=O)(=O)c4ccc(Nc5ncccc5C(=O)O)cc4)c(Cl)c1)(C3)C2 [Compound 265],78,
O=C(O)c1cncnc1Nc1ccc(Nc2ccc(C34CC5CC(CC(C5)C3)C4)cc2Cl)cc1 [Compound 85],20,
COc1ccc(Nc2ccc(N(C)c3ccc(C4=CCC(F)(F)CC4)cc3)cc2)c(C(=O)O)c1 [CP-557],,inhibition at 10 µM (Table 3): 34%
O=C(O)c1cccc(Nc2cc(C(F)(F)F)cc3[nH]c4ccc(C56CC7CC(CC(C7)C5)C6)cc4c23)n1 [Compound 154],58,% of inhibition of TEAD2 palmitoylation at 10 μM (Table 2): 43%
CN(c1ccc(C2CCCCC2)cc1)c1ccc(Nc2cccc(C(=O)O)n2)cn1 [CP-643],,inhibition at 10 µM (Table 3): 89%
CCCCN(CCCC)C(=O)c1ccc(Nc2ccc(Nc3ncccc3C(=O)O)cc2)cc1 [Compound 256],46,
CC(C)c1ccccc1-c1ccc(Nc2ccc(Nc3cccc(C(=O)O)n3)cc2)cc1 [Compound 209],54,
